Results reported in patent publication US9775844B2, “Heterocyclic compounds and uses thereof” (Infinity Pharmaceuticals, Inc., priority 2014, dated 2017).
pIC50: −log10 of the molar value.

Legend:
PI3K α = PI3K α (Homo sapiens (Human), UniProt P42336); assay: PI3-Kinase Promega ADP-Glo Max assay; type: biochemical
PI3K β = PI3K β (Homo sapiens (Human), UniProt P42338); assay: PI3-Kinase Promega ADP-Glo Max assay; type: biochemical
PI3K δ = PI3K δ (Homo sapiens (Human), UniProt O00329); assay: PI3-Kinase Promega ADP-Glo Max assay; type: biochemical
Procedure: Promega ADP-Glo Max assay kit (Cat. No. V7002) was utilized to determine IC50 values for α, β, δ and γ isoforms of human Class I PI3 kinases (Millipore). […] Reactions were incubated at room temperature for 2 hours followed by addition of 25 uL of stop solution. After a 40-minute incubation at room temperature, 50 uL of Promega detection mix was added followed by incubation for 1 hour at room temperature. Plates were then read on Envision plate reader in lunimescence mode. Data was converted to % inhibition using the following equation below:
[formula] where S is the sample luminescence, Pos is a positive control without added PI3K, Neg is the negative control without added compound. Data was then plotted as % inhibition vs compound concentration.

PI3K γ = PI3K γ (Homo sapiens (Human), UniProt P48736); assay: PI3-Kinase Promega ADP-Glo Max assay; type: biochemical
PI3K-δ in RAJI cells = PI3K-δ in RAJI cells (Homo sapiens (Human), UniProt O00329); assay: RAJI p110 δ assay (PI3K-δ selective cellular assay, phospho-AKT); type: cell-based; details: phospho-AKT; read-out: RAJI p110 δ assay IC50
[1] = biological target: PI3K-γ in RAW264.7 macrophages (Mus musculus (Mouse), UniProt Q9JHG7); assay: Raw264.7 p110 γ assay (PI3K-γ selective cellular assay, C5a-stimulated phospho-AKT); type: cell-based; details: for pIC50: phospho-AKT, read-out: Raw264.7 p110 γ assay IC50
PI3K-γ in RAW264.7 macrophages, sequence (Q9JHG7 whole entry): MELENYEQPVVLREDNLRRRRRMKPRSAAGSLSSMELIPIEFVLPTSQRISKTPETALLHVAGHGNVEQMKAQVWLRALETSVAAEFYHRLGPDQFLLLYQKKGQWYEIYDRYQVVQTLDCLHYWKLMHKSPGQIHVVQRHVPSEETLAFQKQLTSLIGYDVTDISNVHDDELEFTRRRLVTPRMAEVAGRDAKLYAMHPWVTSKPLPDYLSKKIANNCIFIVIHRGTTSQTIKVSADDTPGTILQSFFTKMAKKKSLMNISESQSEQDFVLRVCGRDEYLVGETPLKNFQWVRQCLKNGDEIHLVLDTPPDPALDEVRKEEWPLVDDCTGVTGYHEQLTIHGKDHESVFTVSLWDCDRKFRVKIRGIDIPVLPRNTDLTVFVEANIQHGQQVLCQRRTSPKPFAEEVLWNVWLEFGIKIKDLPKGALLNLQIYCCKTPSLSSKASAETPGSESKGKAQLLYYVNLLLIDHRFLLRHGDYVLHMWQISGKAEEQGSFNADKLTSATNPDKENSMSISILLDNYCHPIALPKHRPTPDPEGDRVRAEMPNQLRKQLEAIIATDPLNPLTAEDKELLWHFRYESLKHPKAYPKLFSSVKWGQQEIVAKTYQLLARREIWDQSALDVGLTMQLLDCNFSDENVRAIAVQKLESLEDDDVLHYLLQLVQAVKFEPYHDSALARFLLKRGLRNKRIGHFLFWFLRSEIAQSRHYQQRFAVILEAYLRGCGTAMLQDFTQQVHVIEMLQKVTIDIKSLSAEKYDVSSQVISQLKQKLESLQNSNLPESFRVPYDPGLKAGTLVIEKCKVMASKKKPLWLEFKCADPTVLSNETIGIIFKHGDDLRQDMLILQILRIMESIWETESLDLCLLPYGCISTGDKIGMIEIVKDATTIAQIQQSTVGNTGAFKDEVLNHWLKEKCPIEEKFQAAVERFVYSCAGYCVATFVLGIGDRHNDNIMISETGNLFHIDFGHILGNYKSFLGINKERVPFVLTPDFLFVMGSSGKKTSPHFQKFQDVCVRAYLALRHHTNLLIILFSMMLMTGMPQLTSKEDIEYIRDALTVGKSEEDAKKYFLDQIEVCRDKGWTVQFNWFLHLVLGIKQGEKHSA
Source text: Briefly, serum-starved RAW264.7 cells are stimulated with a known GPCR agonist C5a. […] Cells can be treated with test compounds prior to, simultaneously with, or subsequent to the stimulation by C5a. RAW 264.7 cells respond to the complement component fragment C5a through activation of the C5a receptor, and the C5a receptor activates macrophages and induces cell migration.

PI3K β, sequence (P42338 whole entry): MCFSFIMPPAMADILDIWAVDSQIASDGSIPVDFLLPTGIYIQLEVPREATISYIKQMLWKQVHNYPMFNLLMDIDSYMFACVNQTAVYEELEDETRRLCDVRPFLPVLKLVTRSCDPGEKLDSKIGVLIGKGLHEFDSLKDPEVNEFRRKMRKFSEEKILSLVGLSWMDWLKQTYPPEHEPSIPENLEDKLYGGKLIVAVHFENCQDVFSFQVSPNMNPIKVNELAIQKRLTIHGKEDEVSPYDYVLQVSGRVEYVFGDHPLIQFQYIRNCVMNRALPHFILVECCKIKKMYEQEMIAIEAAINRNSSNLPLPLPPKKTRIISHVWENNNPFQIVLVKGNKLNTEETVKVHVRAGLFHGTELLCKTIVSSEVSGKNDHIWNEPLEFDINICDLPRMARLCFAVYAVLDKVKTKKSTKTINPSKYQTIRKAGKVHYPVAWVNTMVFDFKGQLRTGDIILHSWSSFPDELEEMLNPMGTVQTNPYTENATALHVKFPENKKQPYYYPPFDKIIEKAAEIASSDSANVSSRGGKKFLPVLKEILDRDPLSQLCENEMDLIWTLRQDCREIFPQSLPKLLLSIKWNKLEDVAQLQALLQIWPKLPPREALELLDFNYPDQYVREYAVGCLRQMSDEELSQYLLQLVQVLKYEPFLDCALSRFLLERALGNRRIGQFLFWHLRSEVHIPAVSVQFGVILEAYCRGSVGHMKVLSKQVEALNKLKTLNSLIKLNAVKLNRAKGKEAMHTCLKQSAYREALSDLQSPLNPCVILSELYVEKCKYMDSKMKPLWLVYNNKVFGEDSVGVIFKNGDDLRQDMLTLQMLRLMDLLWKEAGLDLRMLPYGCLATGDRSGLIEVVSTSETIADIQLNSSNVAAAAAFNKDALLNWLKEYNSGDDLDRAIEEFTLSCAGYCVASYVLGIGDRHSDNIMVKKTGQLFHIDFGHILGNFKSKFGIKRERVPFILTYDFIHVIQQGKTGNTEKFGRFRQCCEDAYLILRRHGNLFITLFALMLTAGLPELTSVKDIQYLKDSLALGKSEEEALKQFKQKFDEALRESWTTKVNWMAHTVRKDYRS
PI3K β, sequence (P27986 whole entry partner): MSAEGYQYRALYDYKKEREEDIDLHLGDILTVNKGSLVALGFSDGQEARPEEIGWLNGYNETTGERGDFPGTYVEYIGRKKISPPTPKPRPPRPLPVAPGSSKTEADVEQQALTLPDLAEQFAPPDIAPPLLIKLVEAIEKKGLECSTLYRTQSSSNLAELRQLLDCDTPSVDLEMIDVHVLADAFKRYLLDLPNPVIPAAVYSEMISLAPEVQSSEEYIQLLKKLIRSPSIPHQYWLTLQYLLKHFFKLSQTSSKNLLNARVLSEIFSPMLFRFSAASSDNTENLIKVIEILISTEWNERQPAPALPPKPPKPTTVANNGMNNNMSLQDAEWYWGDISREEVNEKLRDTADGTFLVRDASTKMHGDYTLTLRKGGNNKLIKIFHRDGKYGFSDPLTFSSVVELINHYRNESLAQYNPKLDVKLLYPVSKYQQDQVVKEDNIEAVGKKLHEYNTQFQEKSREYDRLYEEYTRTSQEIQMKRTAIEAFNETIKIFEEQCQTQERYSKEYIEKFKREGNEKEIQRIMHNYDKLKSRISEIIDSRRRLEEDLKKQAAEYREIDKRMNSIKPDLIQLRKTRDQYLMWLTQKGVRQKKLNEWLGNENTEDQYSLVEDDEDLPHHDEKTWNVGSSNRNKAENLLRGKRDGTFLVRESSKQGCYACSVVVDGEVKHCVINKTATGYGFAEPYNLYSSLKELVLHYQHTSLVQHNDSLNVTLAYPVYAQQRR
PI3K γ, sequence (P48736 whole entry): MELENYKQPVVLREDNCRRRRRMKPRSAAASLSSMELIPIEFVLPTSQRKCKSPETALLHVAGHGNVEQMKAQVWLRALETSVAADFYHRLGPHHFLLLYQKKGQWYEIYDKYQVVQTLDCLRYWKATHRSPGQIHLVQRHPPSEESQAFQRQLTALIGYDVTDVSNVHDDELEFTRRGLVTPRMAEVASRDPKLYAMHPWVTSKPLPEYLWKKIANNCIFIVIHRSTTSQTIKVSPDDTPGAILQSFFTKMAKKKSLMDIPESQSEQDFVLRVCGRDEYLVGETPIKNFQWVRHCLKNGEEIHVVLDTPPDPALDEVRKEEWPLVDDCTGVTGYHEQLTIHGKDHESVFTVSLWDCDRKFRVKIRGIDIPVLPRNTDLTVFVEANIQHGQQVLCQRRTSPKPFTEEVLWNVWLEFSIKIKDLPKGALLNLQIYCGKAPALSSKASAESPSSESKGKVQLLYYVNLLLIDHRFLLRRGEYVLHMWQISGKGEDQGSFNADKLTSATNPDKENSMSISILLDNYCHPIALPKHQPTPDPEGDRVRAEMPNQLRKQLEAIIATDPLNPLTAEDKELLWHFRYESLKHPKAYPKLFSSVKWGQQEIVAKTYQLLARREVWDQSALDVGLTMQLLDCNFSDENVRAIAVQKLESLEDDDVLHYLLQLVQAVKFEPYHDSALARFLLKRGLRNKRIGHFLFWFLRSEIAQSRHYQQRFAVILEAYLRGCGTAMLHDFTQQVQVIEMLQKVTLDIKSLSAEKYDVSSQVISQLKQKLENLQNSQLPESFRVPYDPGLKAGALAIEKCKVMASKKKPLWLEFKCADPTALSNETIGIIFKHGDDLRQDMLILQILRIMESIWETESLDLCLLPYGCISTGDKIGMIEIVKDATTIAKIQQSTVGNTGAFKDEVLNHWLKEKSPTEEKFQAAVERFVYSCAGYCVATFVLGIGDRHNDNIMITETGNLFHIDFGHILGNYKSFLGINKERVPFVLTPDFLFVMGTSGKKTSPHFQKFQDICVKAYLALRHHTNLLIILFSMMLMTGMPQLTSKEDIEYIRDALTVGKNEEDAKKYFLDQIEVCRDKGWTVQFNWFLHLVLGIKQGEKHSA
PI3K δ, sequence (O00329 whole entry): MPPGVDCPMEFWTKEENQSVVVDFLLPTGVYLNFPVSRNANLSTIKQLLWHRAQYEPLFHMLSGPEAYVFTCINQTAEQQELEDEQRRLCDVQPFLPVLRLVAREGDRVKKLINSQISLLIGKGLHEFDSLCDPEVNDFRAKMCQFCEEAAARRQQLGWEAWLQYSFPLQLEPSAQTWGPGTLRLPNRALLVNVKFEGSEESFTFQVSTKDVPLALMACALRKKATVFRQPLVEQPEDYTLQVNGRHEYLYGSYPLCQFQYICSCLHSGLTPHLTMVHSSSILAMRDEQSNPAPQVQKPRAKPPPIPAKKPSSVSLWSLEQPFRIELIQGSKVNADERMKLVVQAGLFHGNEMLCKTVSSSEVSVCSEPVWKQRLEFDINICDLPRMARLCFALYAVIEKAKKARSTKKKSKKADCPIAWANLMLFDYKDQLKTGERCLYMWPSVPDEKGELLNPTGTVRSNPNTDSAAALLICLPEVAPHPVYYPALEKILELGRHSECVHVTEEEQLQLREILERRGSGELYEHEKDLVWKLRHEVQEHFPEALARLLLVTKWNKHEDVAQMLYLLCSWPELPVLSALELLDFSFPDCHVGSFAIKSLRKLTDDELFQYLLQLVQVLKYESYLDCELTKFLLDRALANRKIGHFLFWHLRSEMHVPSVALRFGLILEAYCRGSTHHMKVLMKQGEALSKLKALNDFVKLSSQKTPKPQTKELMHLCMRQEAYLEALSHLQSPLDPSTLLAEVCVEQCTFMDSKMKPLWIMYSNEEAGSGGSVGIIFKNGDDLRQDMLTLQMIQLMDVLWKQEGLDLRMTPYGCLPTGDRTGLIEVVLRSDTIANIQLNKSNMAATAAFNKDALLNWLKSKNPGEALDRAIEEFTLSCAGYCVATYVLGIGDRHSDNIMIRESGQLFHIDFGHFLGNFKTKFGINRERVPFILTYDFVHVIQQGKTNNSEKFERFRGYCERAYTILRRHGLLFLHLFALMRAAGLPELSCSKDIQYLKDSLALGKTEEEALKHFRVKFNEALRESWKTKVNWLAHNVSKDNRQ
PI3K δ, sequence (P27986 whole entry partner): as the sequence (P27986 whole entry partner) above

SMILES	pIC50 (PI3K α)	pIC50 (PI3K β)	pIC50 (PI3K δ)	pIC50 (PI3K γ)	PI3K δ/PI3K γ IC50 (selectivity) (PI3K γ)	pIC50 (PI3K-δ in RAJI cells)	RAJIδ/Raw264.7 γ IC50 (selectivity) [1]	pIC50 [1]
Cc1nn(C)cc1C#Cc1cccc2cc([C@H](C)NC(=O)c3c(N)nn4cccnc34)n(-c3ccccc3)c(=O)c12 [Compound 19]	5.00 to 5.30	5.00 to 5.30	5.00 to 5.30	6.30 to 7.00	Y (Y = 50 to <850)	6.00 to 6.30	Y (Y = 50 to <850)	7.30 to 9.00
C[C@H](NC(=O)c1c(N)nn2cccnc12)c1cc2cccc(C#Cc3ccc(=O)n(C)c3)c2c(=O)n1-c1ccccc1 [Compound 20]	5.00 to 5.30	5.00 to 5.30	5.30 to 6.00	7.00 to 9.00	X (X = 10 to <50)	6.30 to 7.00	X (X = 10 to <50)	7.30 to 9.00
COC(C)C#Cc1cccc2cc([C@H](C)NC(=O)c3c(N)nn4cccnc34)n(-c3ccccc3)c(=O)c12 (some centres unmarked) [Compound 22]	5.00 to 5.30	5.00 to 5.30	5.00 to 5.30	6.30 to 7.00	X (X = 10 to <50)	5.00 to 6.00	X (X = 10 to <50)	7.30 to 9.00
C[C@H](NC(=O)c1c(N)nn2cccnc12)c1cc2cccc(C#Cc3cncn3C)c2c(=O)n1C1CC1 [Compound 23]	5.30 to 6.00	5.30 to 6.00	5.00 to 5.30	5.30 to 6.00	W (W = >1 to <10)	6.30 to 7.00	W (W = >1 to <10)	7.30 to 9.00
C[C@H](NC(=O)c1c(N)nn2cccnc12)c1cc2cccc(C#CC3CC3)c2c(=O)n1C1CC1 [Compound 24]	5.30 to 6.00	5.30 to 6.00	5.30 to 6.00	5.30 to 6.00	W (W = >1 to <10)	6.30 to 7.00	W (W = >1 to <10)	7.30 to 9.00
C[C@H](NC(=O)c1c(N)nn2cccnc12)c1cc2cccc(C#Cc3ccncc3)c2c(=O)n1-c1ccccc1 [Compound 26]	5.00 to 5.30	5.00 to 5.30	5.00 to 5.30	6.30 to 7.00	X (X = 10 to <50)	6.30 to 7.00	Y (Y = 50 to <850)	7.30 to 9.00
C[C@H](NC(=O)c1c(N)nn2cccnc12)c1cc2cccc(C#CC3CCOCC3)c2c(=O)n1-c1ccccc1 [Compound 27]	5.00 to 5.30	5.00 to 5.30	5.00 to 5.30	6.30 to 7.00	X (X = 10 to <50)	7.00 to 9.00	Y (Y = 50 to <850)	7.30 to 9.00
COc1cc(C#Cc2cccc3cc([C@H](C)NC(=O)c4c(N)nn5cccnc45)n(-c4ccccc4)c(=O)c23)ccn1 [Compound 28]	5.00 to 5.30	5.00 to 5.30	5.00 to 5.30	5.30 to 6.00	W (W = >1 to <10)	6.30 to 7.00	X (X = 10 to <50)	7.30 to 9.00
C[C@H](NC(=O)c1nccnc1N)c1cc2cccc(C#Cc3cnn(C)c3)c2c(=O)n1-c1ccccc1 [Compound 29]	5.00 to 5.30	5.30 to 6.00	5.30 to 6.00	6.30 to 7.00	X (X = 10 to <50)	7.00 to 9.00	W (W = >1 to <10)	7.30 to 9.00
C[C@H](NC(=O)c1c(N)nn2cccnc12)c1cc2cccc(C#Cc3ccn(C)n3)c2c(=O)n1-c1ccccc1 [Compound 30]	5.00 to 5.30	5.00 to 5.30	5.00 to 5.30	6.30 to 7.00	Y (Y = 50 to <850)	6.30 to 7.00	Y (Y = 50 to <850)	7.30 to 9.00
C[C@H](NC(=O)c1c(N)nn2cccnc12)c1cc2cccc(C#Cc3cc[nH]c(=O)c3)c2c(=O)n1-c1ccccc1 [Compound 31]	5.00 to 5.30	5.00 to 5.30	5.00 to 5.30	6.30 to 7.00	X (X = 10 to <50)	6.30 to 7.00	W (W = >1 to <10)	7.00 to 7.30
C[C@H](NC(=O)c1c(N)nn2cccnc12)c1cc2cccc(C#Cc3ccccn3)c2c(=O)n1-c1ccccc1 [Compound 32]	5.00 to 5.30	5.00 to 5.30	5.00 to 5.30	6.30 to 7.00	Y (Y = 50 to <850)	6.00 to 6.30	Y (Y = 50 to <850)	7.30 to 9.00
CCOC(C#Cc1cccc2cc([C@H](C)NC(=O)c3c(N)nn4cccnc34)n(-c3ccccc3)c(=O)c12)OCC [Compound 34]	5.00 to 5.30	5.00 to 5.30	5.00 to 5.30	6.00 to 6.30	X (X = 10 to <50)	6.00 to 6.30	X (X = 10 to <50)	7.00 to 7.30
Cc1c(C#Cc2cccc3cc([C@H](C)NC(=O)c4c(N)nn5cccnc45)n(-c4ccccc4)c(=O)c23)cnn1C [Compound 35]	5.00 to 5.30	5.00 to 5.30	5.00 to 5.30	6.30 to 7.00	Y (Y = 50 to <850)	6.00 to 6.30	Y (Y = 50 to <850)	7.30 to 9.00
C[C@H](NC(=O)c1c(N)nn2cccnc12)c1cc2cccc(C#CC=O)c2c(=O)n1-c1ccccc1 [Compound 36]	5.30 to 6.00	6.30 to 9.00	5.30 to 6.00	7.00 to 9.00	X (key: V = 0.1 to 1; W = >1 to <10; X = 10 to <50; Y = 50 to <850)	6.30 to 7.00	W (key: V = 0.1 to 1; W = >1 to <10; X = 10 to <50; Y = 50 to <850)	5.00 to 7.00
Cc1nn(C)c(C)c1C#Cc1cccc2cc([C@H](C)NC(=O)c3c(N)nn4cccnc34)n(-c3ccccc3)c(=O)c12 [Compound 37]	5.00 to 5.30	5.00 to 5.30	5.00 to 5.30	5.30 to 6.00	W (W = >1 to <10)	5.00 to 6.00	Y (Y = 50 to <850)	7.30 to 9.00
Cc1ncc(C#Cc2cccc3cc([C@H](C)NC(=O)c4c(N)nn5cccnc45)n(-c4ccccc4)c(=O)c23)n1C [Compound 38]	5.00 to 5.30	5.00 to 5.30	5.00 to 5.30	7.00 to 9.00	Y (Y = 50 to <850)	6.00 to 6.30	Y (Y = 50 to <850)	7.30 to 9.00
C[C@H](NC(=O)c1cnn2cccnc12)c1cc2cccc(C#Cc3cnn(C)c3)c2c(=O)n1-c1ccccc1 [Compound 39]	5.00 to 5.30	5.00 to 5.30	5.00 to 5.30	6.30 to 7.00	X (X = 10 to <50)	5.00 to 6.00	X (X = 10 to <50)	7.00 to 7.30
Cc1nc(C#Cc2cccc3cc([C@H](C)NC(=O)c4c(N)nn5cccnc45)n(-c4ccccc4)c(=O)c23)cs1 [Compound 40]	5.30 to 6.00	5.00 to 5.30	5.00 to 5.30	7.00 to 9.00	Y (Y = 50 to <850)	6.30 to 7.00	Y (Y = 50 to <850)	7.30 to 9.00
